Counter-ions that a name gives are not always drawn.
melting point	Structure (SMILES)
180 °C	CN(CC(=O)OC(C)(C)C)C[C@@H]1CC(c2ccc(-c3ccc(N4C[C@H](Cn5ccnn5)OC4=O)cc3F)cn2)=NO1 [Example 18, tert-Butyl N-{[(5S)-3-(5-{2-fluoro-4-[(5R)-2-oxo-5-(1H-1,2,3-triazol-1-ylmethyl)-1,3-oxazolidin-3-yl]phenyl}pyridin-2-yl)-4,5-dihydroisoxazol-5-yl]methyl}-N-methylglycinate]
260 to 263 °C	O=C1O[C@@H](Cn2ccnn2)CN1c1ccc(-c2ccc(C3=NO[C@H](CN4CCCC4)C3)nc2)c(F)c1 (as salt: hydrochloride) [Example 12]
250 to 255 °C	O=C1O[C@@H](Cn2ccnn2)CN1c1ccc(-c2ccc(C3=NO[C@H](CN4CC=CCC4)C3)nc2)c(F)c1 (as salt: hydrochloride) [Example 14, (5R)-3-(4-{6-[(5S)-5-(3,6-Dihydropyridin-1(2H)-ylmethyl)-4,5-dihydroisoxazol-3-yl]pyridin-3-yl}-3-fluorophenyl)-5-(1H-1,2,3-triazol-1-ylmethyl)-1,3-oxazolidin-2-one]
190 °C	O=C1O[C@@H](Cn2ccnn2)CN1c1ccc(-c2ccc(C3=NO[C@H](CNCCO)C3)nc2)c(F)c1 [Example 5, (5R)-3-{3-Fluoro-4-[6-((5S)-5-{[(2-hydroxyethyl)amino]methyl}-4,5-dihydroisoxazol-3-yl)pyridin-3-yl]phenyl}-5-(1H-1,2,3-triazol-1-ylmethyl)-1,3-oxazolidin-2-one]
246 to 249 °C	O=C(NC[C@@H]1CC(c2ccc(-c3ccc(N4C[C@H](Cn5ccnn5)OC4=O)cc3F)cn2)=NO1)[C@@H]1CCCN1 (as salt: hydrochloride) [Example 20, N-{[(5S)-3-(5-{2-Fluoro-4-[(5R)-2-oxo-5-(1H-1,2,3-triazol-1-ylmethyl)-1,3-oxazolidin-3-yl]phenyl}pyridin-2-yl)-4,5-dihydroisoxazol-5-yl]methyl}-L-prolinamide hydrochloride]
130 to 134 °C	CC(C)[C@@H](N)C(=O)NC[C@@H]1CC(c2ccc(-c3ccc(N4C[C@H](Cn5ccnn5)OC4=O)cc3F)cn2)=NO1 (as salt: hydrochloride) [Example 21, N^1-{[(5S)-3-(5-{2-Fluoro-4-[(5R)-2-oxo-5-(1H-1,2,3-triazol-1-ylmethyl)-1,3-oxazolidin-3-yl]phenyl}pyridin-2-yl)-4,5-dihydroisoxazol-5-yl]methyl}-D-valinamide hydrochloride]
239 to 242 °C	O=C1O[C@@H](Cn2ccnn2)CN1c1ccc(-c2ccc(C3=NO[C@H](Cn4ccnc4)C3)nc2)c(F)c1 [Example 26, (5R)-3-(3-Fluoro-4-{6-[(5S)-5-(1H-imidazol-1-ylmethyl)-4,5-dihydroisoxazol-3-yl]pyridin-3-yl}phenyl)-5-(1H-1,2,3-triazol-1-ylmethyl)-1,3-oxazolidin-2-one]
212 °C	CN(C)C[C@@H]1CC(c2ccc(-c3ccc(N4C[C@H](Cn5ccnn5)OC4=O)cc3F)cn2)=NO1 [Example 1, (5R)-3-[4-(6-{(5S)-5-[(Dimethylamino)methyl]-4,5-dihydroisoxazol-3-yl}pyridin-3-yl)-3-fluorophenyl]-5-(1H-1,2,3-triazol-1-ylmethyl)-1,3-oxazolidin-2-one]
228 to 230 °C	CC(C)(C)OC(=O)NC[C@@H]1CC(c2ccc(-c3ccc(N4C[C@H](Cn5ccnn5)OC4=O)cc3F)cn2)=NO1 [Example 15, tert-Butyl {[(5S)-3-(5-{2-fluoro-4-[(5R)-2-oxo-5-(1H-1,2,3-triazol-1-ylmethyl)-1,3-oxazolidin-3-yl]phenyl}pyridin-2-yl)-4,5-dihydroisoxazol-5-yl]methyl}carbamate]
> 280 °C (dec.)	Br.O=C1O[C@@H](Cn2ccnn2)CN1c1ccc(-c2ccc(C3=NO[C@H](CN4CCOCC4)C3)nc2)c(F)c1 [Example 3b]
222 to 225 °C	O=C1O[C@@H](Cn2ccnn2)CN1c1ccc(-c2ccc(C3=NO[C@H](CN4CCSCC4)C3)nc2)c(F)c1 [Example 7, (5R)-3-(3-Fluoro-4-{6-[(5S)-5-(thiomorpholin-4-ylmethyl)-4,5-dihydroisoxazol-3-yl]pyridin-3-yl}phenyl)-5-(1H-1,2,3-triazol-1-ylmethyl)-1,3-oxazolidin-2-one]
242 to 244 °C	C[C@H](N)C(=O)NC[C@@H]1CC(c2ccc(-c3ccc(N4C[C@H](Cn5ccnn5)OC4=O)cc3F)cn2)=NO1 (as salt: hydrochloride) [Example 22, N^1-{[(5S)-3-(5-{2-fluoro-4-[(5R)-2-oxo-5-(1H-1,2,3-triazol-1-ylmethyl)-1,3-oxazolidin-3-yl]phenyl}pyridin-2-yl)-4,5-dihydroisoxazol-5-yl]methyl}-L-alaninamide hydrochloride]
165 to 168 °C	O=C1O[C@@H](Cn2ccnn2)CN1c1ccc(-c2ccc(C3=NO[C@H](CN4CCOCC4)C3)nc2)c(F)c1 (as salt: sulfonic acid salt) [Example 3c, (5R)-3-(3-Fluoro-4-{6-[(5S)-5-(morpholin-4-ylmethyl)-4,5-dihydroisoxazol-3-yl]pyridin-3-yl}phenyl)-5-(1H-1,2,3-triazol-1-ylmethyl)-1,3-oxazolidin-2-one, methanesulfonic acid salt]
212 to 218 °C	CN(CC(=O)O)C[C@@H]1CC(c2ccc(-c3ccc(N4C[C@H](Cn5ccnn5)OC4=O)cc3F)cn2)=NO1 [Example 19, N-{[(5S)-3-(5-{2-Fluoro-4-[(5R)-2-oxo-5-(1H-1,2,3-triazol-1-ylmethyl)-1,3-oxazolidin-3-yl]phenyl}pyridin-2-yl)-4,5-dihydroisoxazol-5-yl]methyl}-N-methylglycine]
230 °C	CCCCNC[C@@H]1CC(c2ccc(-c3ccc(N4C[C@H](Cn5ccnn5)OC4=O)cc3F)cn2)=NO1 [Example 6, (5R)-3-[4-(6-{(5S)-5-[(Butylamino)methyl]-4,5-dihydroisoxazol-3-yl}pyridin-3-yl)-3-fluorophenyl]-5-(1H-1,2,3-triazol-1-ylmethyl)-1,3-oxazolidin-2-one]
211 to 215 °C	O=C1O[C@@H](Cn2ccnn2)CN1c1ccc(-c2ccc(C3=NO[C@H](CN4CCCCC4)C3)nc2)c(F)c1 (as salt: hydrochloride) [Example 13, (5R)-3-(3-Fluoro-4-{6-[(5S)-5-(piperidin-1-ylmethyl)-4,5-dihydroisoxazol-3-yl]pyridin-3-yl}phenyl)-5-(1H-1,2,3-triazol-1-ylmethyl)-1,3-oxazolidin-2-one]
200 to 203 °C	O=C1O[C@@H](Cn2ccnn2)CN1c1ccc(-c2ccc(C3=NO[C@H](CN4CCS(=O)(=O)CC4)C3)nc2)c(F)c1 [Example 9, (5R)-3-[4-(6-{(5S)-5-[(1,1-Dioxidothiomorpholin-4-yl)methyl]-4,5-dihydroisoxazol-3-yl}pyridin-3-yl)-3-fluorophenyl]-5-(1H-1,2,3-triazol-1-ylmethyl)-1,3-oxazolidin-2-one]
135 to 145 °C	CN(CC(=O)O)CC(=O)N(C)C[C@@H]1CC(c2ccc(-c3ccc(N4C[C@H](Cn5ccnn5)OC4=O)cc3F)cn2)=NO1 [Example 24, N-{2-[{[(5S)-3-(5-{2-Fluoro-4-[(5R)-2-oxo-5-(1H-1,2,3-triazol-1-ylmethyl)-1,3-oxazolidin-3-yl]phenyl}pyridin-2-yl)-4,5-dihydroisoxazol-5-yl]methyl}(methyl)amino]-2-oxoethyl}-N-methylglycine]
215 to 217 °C	N[C@@H](CCC(=O)O)C(=O)NC[C@@H]1CC(c2ccc(-c3ccc(N4C[C@H](Cn5ccnn5)OC4=O)cc3F)cn2)=NO1 (racemic) [Example 29, N^1-{[(5S)-3-(5-{2-Fluoro-4-[(SR)-2-oxo-5-(1H-1,2,3-triazol-1-ylmethyl)-1,3-oxazolidin-3-yl]phenyl}pyridin-2-yl)-4,5-dihydroisoxazol-5-yl]methyl}-L-α-glutamine]
200 to 210 °C	O=C(O)CNCC(=O)NC[C@@H]1CC(c2ccc(-c3ccc(N4C[C@H](Cn5ccnn5)OC4=O)cc3F)cn2)=NO1 [Example 25, N-[2-({[(5S)-3-(5-{2-Fluoro-4-[(5R)-2-oxo-5-(1H-1,2,3-triazol-1-ylmethyl)-1,3-oxazolidin-3-yl]phenyl}pyridin-2-yl)-4,5-dihydroisoxazol-5-yl]methyl}amino)-2-oxoethyl]glycine]
122 to 132 °C	CN(C)CC(=O)N(C)C[C@@H]1CC(c2ccc(-c3ccc(N4C[C@H](Cn5ccnn5)OC4=O)cc3F)cn2)=NO1 (as salt: hydrochloride) [Example 23, N^1-{[(5S)-3-(5-{2-fluoro-4-[(5R)-2-oxo-5-(1H-1,2,3-triazol-1-ylmethyl)-1,3-oxazolidin-3-yl]phenyl}pyridin-2-yl)-4,5-dihydroisoxazol-5-yl]methyl}-N^1,N^2,N^2-trimethylglycinamide]
153 to 156 °C	CN(CCO)C[C@@H]1CC(c2ccc(-c3ccc(N4C[C@H](Cn5ccnn5)OC4=O)cc3F)cn2)=NO1 [Example 10, (5R)-3-[3-Fluoro-4-[6-((5S)-5-{[(2-hydroxyethyl)(methyl)amino]methyl]-4,5-dihydroisoxazol-3-yl)pyridin-3-yl]phenyl}-5-(1H-1,2,3-triazol-1-ylmethyl)-1,3-oxazolidin-2-one]
218 to 220 °C	O=C1O[C@@H](Cn2ccnn2)CN1c1ccc(-c2ccc(C3=NO[C@H](CN4CC[S+]([O-])CC4)C3)nc2)c(F)c1 [Example 8, (5R)-3-[3-Fluoro-4-(6-{(5S)-5-[(1-oxidothiomorpholin-4-yl)methyl]-4,5-dihydroisoxazol-3-yl}pyridin-3-yl)phenyl]-5-(1H-1,2,3-triazol-1-ylmethyl)-1,3-oxazolidin-2-one]
239 to 245 °C	O=C1O[C@@H](Cn2ccnn2)CN1c1ccc(-c2ccc(C3=NO[C@@H](CN4CCOCC4)C3)nc2)c(F)c1 [Example 11, (5R)-3-(3-Fluoro-4-{6-[(5R)-5-(morpholin-4-ylmethyl)-4,5-dihydroisoxazol-3-yl]pyridin-3-yl}phenyl)-5-(1H-1,2,3-triazol-1-ylmethyl)-1,3-oxazolidin-2-one]
215 °C	CNC[C@@H]1CC(c2ccc(-c3ccc(N4C[C@H](Cn5ccnn5)OC4=O)cc3F)cn2)=NO1 [Example 2]

From patent publication US20080064689A1, “3-[4-(6-Pyridin-3-Yl)-3-Phenyl] -5-(1H-1,2,3-Triazol-1-Ylmethyl)-1,3-Oxazolidin-2-Ones as Antibacterial Agents” (AstraZeneca AB, priority 2004, published 2008)
